Experimental data: publication PMC10583239 (CPT: Pharmacometrics & Systems Pharmacology, 2023)
Converted amounts (≈) assume the structure as drawn. Marks after values point to notes of the source that are not given here.

Legend:
[1] = target: T1, CYP2C9 (Homo sapiens, UniProt P11712); experiment: biochemical
[2] = target: CYP3A4 (Homo sapiens, UniProt P08684); experiment: Metabolic stability in recombinant human CYP3A4 with NADPH; assay type: in vitro ADME; conditions: CYP3A4 share of CYP metabolism, scaled by abundance and ISEF
CYP3A4, sequence (P08684 whole entry): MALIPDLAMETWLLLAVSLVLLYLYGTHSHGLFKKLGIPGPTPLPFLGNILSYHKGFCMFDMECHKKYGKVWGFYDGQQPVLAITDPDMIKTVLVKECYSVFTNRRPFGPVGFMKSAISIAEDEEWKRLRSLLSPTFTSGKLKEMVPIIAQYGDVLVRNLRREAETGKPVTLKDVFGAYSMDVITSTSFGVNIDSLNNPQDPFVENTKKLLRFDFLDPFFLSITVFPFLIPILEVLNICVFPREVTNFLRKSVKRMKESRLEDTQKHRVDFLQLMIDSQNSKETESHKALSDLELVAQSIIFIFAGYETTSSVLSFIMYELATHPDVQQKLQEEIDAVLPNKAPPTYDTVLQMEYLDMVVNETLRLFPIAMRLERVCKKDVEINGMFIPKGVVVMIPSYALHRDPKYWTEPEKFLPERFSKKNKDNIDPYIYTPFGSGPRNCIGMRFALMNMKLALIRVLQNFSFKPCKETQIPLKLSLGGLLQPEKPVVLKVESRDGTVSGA

[3] = Human liver microsomal protein binding; assay type: in vitro ADME; conditions: human liver microsomes
[4] = target: T2, CYP1A2 (Homo sapiens, UniProt P05177); experiment: biochemical
T2 sequence (P05177 1-516): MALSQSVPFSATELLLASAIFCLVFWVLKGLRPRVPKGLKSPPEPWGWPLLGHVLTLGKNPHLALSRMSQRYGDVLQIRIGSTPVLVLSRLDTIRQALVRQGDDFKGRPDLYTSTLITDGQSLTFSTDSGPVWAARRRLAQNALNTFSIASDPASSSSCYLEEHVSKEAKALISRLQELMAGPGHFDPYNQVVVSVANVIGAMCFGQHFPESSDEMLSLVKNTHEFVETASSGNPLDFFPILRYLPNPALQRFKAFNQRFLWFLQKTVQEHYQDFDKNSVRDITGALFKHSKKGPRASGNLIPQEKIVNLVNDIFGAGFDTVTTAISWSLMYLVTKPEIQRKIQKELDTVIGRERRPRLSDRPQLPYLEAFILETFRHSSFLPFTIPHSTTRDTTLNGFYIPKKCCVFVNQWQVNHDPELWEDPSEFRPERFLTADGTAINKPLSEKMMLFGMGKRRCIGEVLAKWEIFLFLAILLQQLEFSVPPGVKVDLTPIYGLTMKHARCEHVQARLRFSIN

[5] = target: T3, CYP2C19 (Homo sapiens, UniProt P33261); experiment: Metabolic stability in recombinant human CYP2C19 with NADPH; assay type: in vitro ADME; conditions: CYP2C19 share of CYP metabolism, scaled by abundance and ISEF
T3 sequence (P33261 whole entry): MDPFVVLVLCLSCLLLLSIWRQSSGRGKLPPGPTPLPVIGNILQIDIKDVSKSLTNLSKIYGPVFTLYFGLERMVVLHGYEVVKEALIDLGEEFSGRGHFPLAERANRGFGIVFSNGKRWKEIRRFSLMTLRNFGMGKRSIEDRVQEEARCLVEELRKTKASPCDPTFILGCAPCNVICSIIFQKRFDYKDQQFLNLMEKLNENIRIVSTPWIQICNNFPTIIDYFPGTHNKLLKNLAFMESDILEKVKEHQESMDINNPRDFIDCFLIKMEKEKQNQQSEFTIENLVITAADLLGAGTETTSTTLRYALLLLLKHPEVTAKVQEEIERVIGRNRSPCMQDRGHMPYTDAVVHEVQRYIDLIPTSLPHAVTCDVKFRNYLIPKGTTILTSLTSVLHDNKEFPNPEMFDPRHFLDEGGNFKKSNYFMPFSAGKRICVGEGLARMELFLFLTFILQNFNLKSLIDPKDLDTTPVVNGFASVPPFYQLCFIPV

[6] = target: T3, CYP2C19; experiment: biochemical
[7] = Aqueous phase solubility; assay type: physicochemical; conditions: pH 6.71, aqueous buffer
[8] = target: T4, CYP2B6 (Homo sapiens, UniProt P20813); experiment: Metabolic stability in recombinant human CYP2B6 with NADPH; assay type: in vitro ADME; conditions: CYP2B6 share of CYP metabolism, scaled by abundance and ISEF
T4 sequence (P20813 1-491): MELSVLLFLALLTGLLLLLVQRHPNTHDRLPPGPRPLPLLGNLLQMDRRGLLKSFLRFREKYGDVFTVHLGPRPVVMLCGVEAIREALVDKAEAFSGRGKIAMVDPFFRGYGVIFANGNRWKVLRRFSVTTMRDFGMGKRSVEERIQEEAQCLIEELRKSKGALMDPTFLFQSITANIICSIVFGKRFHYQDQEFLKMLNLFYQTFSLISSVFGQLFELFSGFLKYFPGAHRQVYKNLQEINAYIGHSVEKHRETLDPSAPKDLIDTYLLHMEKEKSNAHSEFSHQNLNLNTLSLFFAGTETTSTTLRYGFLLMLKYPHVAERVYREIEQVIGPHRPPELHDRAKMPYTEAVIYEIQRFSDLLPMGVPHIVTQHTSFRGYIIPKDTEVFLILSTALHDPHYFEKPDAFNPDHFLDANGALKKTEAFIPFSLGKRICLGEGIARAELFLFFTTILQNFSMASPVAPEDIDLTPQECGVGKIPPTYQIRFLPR

[9] = Clinical DDI cohorts: pomotrelvir with ritonavir 100 mg
[10] = radiolabeled pomotrelvir ref 16; cited from earlier work
[11] = target: T1, CYP2C9; experiment: Metabolic stability in recombinant human CYP2C9 with NADPH; assay type: in vitro ADME; conditions: CYP2C9 share of CYP metabolism, scaled by abundance and ISEF
[12] = target: T5, CYP2C8 (Homo sapiens, UniProt P10632); experiment: Metabolic stability in recombinant human CYP2C8 with NADPH; assay type: in vitro ADME; conditions: CYP2C8 share of CYP metabolism, scaled by abundance and ISEF
T5 sequence (P10632 1-490): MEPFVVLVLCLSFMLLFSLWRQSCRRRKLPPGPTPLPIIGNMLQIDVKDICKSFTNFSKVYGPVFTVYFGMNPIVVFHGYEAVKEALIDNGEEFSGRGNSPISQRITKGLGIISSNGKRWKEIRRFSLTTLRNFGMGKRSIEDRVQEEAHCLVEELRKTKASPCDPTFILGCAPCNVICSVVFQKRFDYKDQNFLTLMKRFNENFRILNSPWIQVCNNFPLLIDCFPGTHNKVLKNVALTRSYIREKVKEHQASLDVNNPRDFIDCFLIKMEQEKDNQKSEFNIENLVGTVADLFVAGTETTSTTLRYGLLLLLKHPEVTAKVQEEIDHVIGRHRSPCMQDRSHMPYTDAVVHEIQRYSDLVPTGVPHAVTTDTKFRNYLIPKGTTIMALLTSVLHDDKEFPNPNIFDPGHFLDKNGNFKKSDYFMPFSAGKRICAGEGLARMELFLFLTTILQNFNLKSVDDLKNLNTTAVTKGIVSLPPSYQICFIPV

[13] = target: T4, CYP2B6; conditions: main text summary
[14] = (20 mg PBI + 100 mg RTV, SD)/(100 mg POMO, SD)
[15] = (50 mg PBI + 100 mg RTV, Day1)/(100 mg POMO, SD)
[16] = (50 mg PBI + 100 mg RTV, Day5)/(100 mg POMO, SD), AUClast/Dose over AUCinf/Dose
[17] = (50 mg PBI + 100 mg RTV, Day10)/(100 mg POMO, SD), AUClast/Dose over AUCinf/Dose

T1 sequence (P11712 whole entry): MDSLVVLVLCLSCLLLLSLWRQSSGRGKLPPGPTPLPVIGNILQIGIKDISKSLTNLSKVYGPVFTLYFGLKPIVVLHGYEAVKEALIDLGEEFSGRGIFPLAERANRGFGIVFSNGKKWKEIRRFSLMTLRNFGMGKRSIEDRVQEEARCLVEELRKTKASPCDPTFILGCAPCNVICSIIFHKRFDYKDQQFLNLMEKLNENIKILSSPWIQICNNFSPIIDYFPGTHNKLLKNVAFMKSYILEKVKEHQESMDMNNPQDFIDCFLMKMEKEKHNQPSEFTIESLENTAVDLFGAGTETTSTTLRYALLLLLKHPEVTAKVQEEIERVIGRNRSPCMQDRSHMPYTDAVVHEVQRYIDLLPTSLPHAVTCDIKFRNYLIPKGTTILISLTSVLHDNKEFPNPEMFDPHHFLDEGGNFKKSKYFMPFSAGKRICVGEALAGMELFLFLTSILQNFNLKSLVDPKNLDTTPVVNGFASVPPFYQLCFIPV

## N#C[C@H](C[C@@H]1CCCNC1=O)NC(=O)[C@H](CC1CC1)NC(=O)c1cc2cccc(Cl)c2[nH]1 [Pomotrelvir, pomotrelvir]
[1]
  Ki: 12.3 µM
[2]
  Relative Contribution (fm): 88%
[3]
  fraction unbound: 0.85
[4]
  Ki: 9.04 µM
[5]
  Relative Contribution (fm): negligible
[6]
  Ki: 27.3 µM
[7]
  solubility: 10 µg/mL (≈ 21.9 µM)
[8]
  Relative Contribution (fm): negligible
[9]; 100 mg ritonavir, all cohorts and parameters
  change of dose‐normalized systemic exposure in the presence of ritonavir: 0.92–1.54 fold
[9]; [14]
  AUCinf/dose GMR (90% CI): 0.92 (0.67, 1.26)
  AUClast/dose GMR (90% CI): 1.06 (0.68, 1.65)
  Cmax/dose GMR (90% CI): 0.97 (0.76, 1.22)
[9]; [15]
  AUCinf/dose GMR (90% CI): 1.54 (1.13, 2.1)
  AUClast/dose GMR (90% CI): 1.38 (1.08, 1.76)
  Cmax/dose GMR (90% CI): 1.46 (1.16, 1.84)
[9]; (50 mg PBI + 100 mg RTV, Day5)/(100 mg POMO, SD)
  Cmax/dose GMR (90% CI): 1.3 (0.9, 1.89)
[9]; [16]
  AUCinf/dose GMR (90% CI): 1.34 (0.96, 1.87) ^a
  AUClast/dose GMR (90% CI): 1.34 (0.96, 1.87) ^a
[9]; (50 mg PBI + 100 mg RTV, Day10)/(100 mg POMO, SD)
  Cmax/dose GMR (90% CI): 1.41 (1.05, 1.91)
[9]; [17]
  AUCinf/dose GMR (90% CI): 1.37 (1.05, 1.79) ^b
  AUClast/dose GMR (90% CI): 1.37 (1.05, 1.79) ^b
[9]; single or multiple doses
  increase in exposure upon coadministration with ritonavir: < 50%
[10]
  major route of metabolism and clearance: nonhepatic hydrolysis
  urinary excretion of intact drug: Minimal
[11]
  Relative Contribution (fm): negligible
[12]
  Relative Contribution (fm): 11%
[13]
  inhibitory effect on CYP2B6 in vitro (in words): No inhibitory effect
